What was measured:
Assay type in all cases: cell-based
C. freundii strain [1] = assay: Electrochemical assay with substrate HMRZ-86, liquid cultures; conditions: C. freundii 11745, Inducible cephalosporinase; liquid culture, 30 min with HMRZ-86
Experimental: Each cryopreserved strain is cultured in 10 mL of LB medium at 37° C. until the stationary phase is obtained.
A volume of 50 μL of culture liquid is incubated in the presence of 50 μL of a solution of HMRZ-86 at 0.5 mM in PBS at 37° C. with stirring for 30 min. 40 μL of the reaction mixture is taken and transferred onto the surface of a screen-printed carbon sensor (Dropsens, DRP-110) connected beforehand to a STAT 8000P portable potentiostat (Dropsens) with power supply from the computer's USB port and controlled by the DropView 8400 software. Linear voltammetry measurements are carried out by linear potential scanning from −0.1 V to 1.2 V at a rate of 50 mV·s^−1. The peak current appearing in the potential range +0.2 to +0.55 V vs. Ag/AgCl, associated with hydrolysis of the beta-lactam ring of HMRZ-86, is selected as the analytical response. If the intensity of the peak (i) has a value above 500 nA, the sample contains a strain capable of degrading the C3Gs.
(§1) The electrochemical method of the invention was applied to analysis of a panel of 40 strains producing various β-lactamases and was compared with the R-Lacta™ Test (Biorad), the principle of which is based on qualitative colorimetric detection of the C3G-resistant strains. The results presented in Table 7 were obtained after 30 min of incubation of the bacteria with the substrate HMRZ-86 for both methods. Based on the interpretation of the results proposed by the supplier, the R-Lacta™ Test allows identification of the C3G-resistant strains with a level of agreement of 68%, whereas a level of agreement of 95% was obtained with the electrochemical method of the invention. In contrast to colorimetry, amperometry offers the advantage of measuring a numerical value of current which, on the one hand, avoids any subjective interpretation of the result (intermediate colour), and on the other hand allows traceability of the result.
(§2) Table 7: Comparison of the results obtained with the electrochemical method of the invention for liquid cultures with those obtained with the R-Lacta™ Test implemented according to the supplier's recommendations with isolated colonies. In both cases, the readings were taken after incubation with the substrate HMRZ-86 for 30 min.

P. aeruginosa strains = assay: β-Lacta Test (colorimetric, HMRZ-86), isolated colonies; parameters: key: Yellow or orange colour: negative result (absence of C3G-resistant strains); Orange: Yellow or orange colour: negative result (absence of C3G-resistant strains); Red colour: positive result (presence of C3G-resistant strains); conditions: 30 min with HMRZ-86
Experimental: as §1, §2

K. oxytoca strain = assay: as above; parameters: key: Yellow or orange colour: negative result (absence of C3G-resistant strains); Orange: Yellow or orange colour: negative result (absence of C3G-resistant strains); Red colour: positive result (presence of C3G-resistant strains); conditions: K. oxytoca 11779, Low-level penicillinase, 30 min with HMRZ-86
Experimental: as §1, §2

[2] = system: E. coli strains producing various β-lactamases; assay: as above; parameters: key: Yellow or orange colour: negative result (absence of C3G-resistant strains); Orange: Yellow or orange colour: negative result (absence of C3G-resistant strains); Red colour: positive result (presence of C3G-resistant strains)
Experimental: as §1, §2

K. pneumoniae strains = assay: as above; parameters: key: Yellow or orange colour: negative result (absence of C3G-resistant strains); Orange: Yellow or orange colour: negative result (absence of C3G-resistant strains); Red colour: positive result (presence of C3G-resistant strains)
Experimental: as §1, §2

S. marcescens strain = assay: as above; parameters: key: Yellow or orange colour: negative result (absence of C3G-resistant strains); Orange: Yellow or orange colour: negative result (absence of C3G-resistant strains); Red colour: positive result (presence of C3G-resistant strains); conditions: S. marcescens 11787, Hyperproduced cephalosporinase, 30 min with HMRZ-86
Experimental: as §1, §2

P. mirabilis strains = assay: as above; parameters: key: Yellow or orange colour: negative result (absence of C3G-resistant strains); Orange: Yellow or orange colour: negative result (absence of C3G-resistant strains); Red colour: positive result (presence of C3G-resistant strains); conditions: 30 min with HMRZ-86
Experimental: as §1, §2

E. aerogenes strains = assay: as above; parameters: key: Yellow or orange colour: negative result (absence of C3G-resistant strains); Orange: Yellow or orange colour: negative result (absence of C3G-resistant strains); Red colour: positive result (presence of C3G-resistant strains)
Experimental: as §1, §2

E. cloacae strains = assay: as above; parameters: key: Yellow or orange colour: negative result (absence of C3G-resistant strains); Orange: Yellow or orange colour: negative result (absence of C3G-resistant strains); Red colour: positive result (presence of C3G-resistant strains); conditions: 30 min with HMRZ-86
Experimental: as §1, §2

C. freundii strain [3] = assay: as above; parameters: key: Yellow or orange colour: negative result (absence of C3G-resistant strains); Orange: Yellow or orange colour: negative result (absence of C3G-resistant strains); Red colour: positive result (presence of C3G-resistant strains); conditions: C. freundii 11745, Inducible cephalosporinase, 30 min with HMRZ-86
Experimental: as §1, §2

Compound: CC(C)(ON=C(C(=O)N[C@@H]1C(=O)N2C(C(=O)O)=C(C=Cc3ccc([N+](=O)[O-])cc3[N+](=O)[O-])CS[C@H]12)c1csc(N)n1)C(=O)O.O=C(O)C(F)(F)F [HMRZ-86, (6R,7R)-trifluoroacetate 7-[[2-(2-amino-4-thiazolyl)-2-[(1-carboxy-1-methylethoxy)imino]acetyl]amino]-1-aza-3-[2-(2,4-dinitrophenyl)ethenyl]-8-oxo-5-thiabicyclo[4.2.0]oct-2-ene-2-carboxylic acid]
- Electrochemical assay Intensity (C. freundii strain [1]): 369 nA
- β-Lacta ™ Test Colour (P. aeruginosa strains; P. aeruginosa 11774, Hyperproduced cephalosporinase): Orange
- β-Lacta ™ Test Colour (P. aeruginosa strains; P. aeruginosa 11778, Hyperproduced cephalosporinase): Yellow
- β-Lacta ™ Test Colour (P. aeruginosa strains; P. aeruginosa 11782, Hyperproduced cephalosporinase): Yellow
- β-Lacta ™ Test Colour (K. oxytoca strain): Yellow
- β-Lacta ™ Test Colour ([2]; E. coli 11746, Hyperproduced penicillinase, 30 min with HMRZ-86): Yellow
- β-Lacta ™ Test Colour ([2]; E. coli 11748, Inducible cephalosporinase, 30 min with HMRZ-86): Yellow
- β-Lacta ™ Test Colour ([2]; E. coli 11755, Carbapenemase OXA-48 - CTX-M, 30 min with HMRZ-86): Red
- β-Lacta ™ Test Colour ([2]; E. coli 11757, Carbapenemase OXA-48, 30 min with HMRZ-86): Orange
- β-Lacta ™ Test Colour ([2]; E. coli 11765, Hyperproduced penicillinase, 30 min with HMRZ-86): Yellow
- β-Lacta ™ Test Colour ([2]; E. coli 11766, Inducible cephalosporinase, 30 min with HMRZ-86): Yellow
- β-Lacta ™ Test Colour ([2]; E. coli 11771, Hyperproduced penicillinase, 30 min with HMRZ-86): Yellow
- β-Lacta ™ Test Colour ([2]; E. coli 11776, Inducible cephalosporinase, 30 min with HMRZ-86): Yellow
- β-Lacta ™ Test Colour ([2]; E. coli 11780, Hyperproduced penicillinase, 30 min with HMRZ-86): Yellow
- β-Lacta ™ Test Colour ([2]; E. coli 11781, Low-level penicillinase, 30 min with HMRZ-86): Yellow
- β-Lacta ™ Test Colour ([2]; E. coli 11791, Hyperproduced cephalosporinase, 30 min with HMRZ-86): Yellow
- β-Lacta ™ Test Colour ([2]; E. coli 11810, ESBL CTX-M-1, 30 min with HMRZ-86): Red
- β-Lacta ™ Test Colour ([2]; E. coli 11817, ESBL CTX-M-2, 30 min with HMRZ-86): Red
- β-Lacta ™ Test Colour ([2]; E. coli 11818, ESBL CTX-M-1, 30 min with HMRZ-86): Red
- β-Lacta ™ Test Colour ([2]; E. coli 11820, ESBL SHV-12, 30 min with HMRZ-86): Red
- β-Lacta ™ Test Colour ([2]; E. coli 11828, ESBL CTX-M-27, 30 min with HMRZ-86): Red
- β-Lacta ™ Test Colour ([2]; E. coli 11833, ESBL CTX-M-9, 30 min with HMRZ-86): Red
- β-Lacta ™ Test Colour ([2]; E. coli 11834, ESBL TEM-12, 30 min with HMRZ-86): Yellow
- β-Lacta ™ Test Colour ([2]; E. coli 11863, ESBL CTX-M-14, 30 min with HMRZ-86): Red
- β-Lacta ™ Test Colour ([2]; E. coli K12, Beta-lactamase negative, 30 min with HMRZ-86): Yellow
- β-Lacta ™ Test Colour (K. pneumoniae strains; K. pneumoniae 11754, Carbapenemase OXA-48 - CTX-M, 30 min with HMRZ-86): Red
- β-Lacta ™ Test Colour (K. pneumoniae strains; K. pneumoniae 11762, Carbapenemase OXA-48, 30 min with HMRZ-86): Orange
- β-Lacta ™ Test Colour (K. pneumoniae strains; K. pneumoniae 11770, Low-level penicillinase, 30 min with HMRZ-86): Yellow
- β-Lacta ™ Test Colour (K. pneumoniae strains; K. pneumoniae 11812, ESBL CTX-M-15, 30 min with HMRZ-86): Red
- β-Lacta ™ Test Colour (K. pneumoniae strains; K. pneumoniae 11839, Carbapenemase KPC-2, 30 min with HMRZ-86): Red
- β-Lacta ™ Test Colour (K. pneumoniae strains; K. pneumoniae 11842, Carbapenemase NDM-1, 30 min with HMRZ-86): Red
- β-Lacta ™ Test Colour (S. marcescens strain): Orange
- β-Lacta ™ Test Colour (P. mirabilis strains; P. mirabilis 11747, Beta-lactamase negative): Yellow
- β-Lacta ™ Test Colour (P. mirabilis strains; P. mirabilis 11768, Low-level penicillinase): Yellow
- β-Lacta ™ Test Colour (E. aerogenes strains; E. aerogenes 11772, Inducible cephalosporinase, 30 min with HMRZ-86): Yellow
- β-Lacta ™ Test Colour (E. aerogenes strains; E. aerogenes 11775, Hyperproduced cephalosporinase, 30 min with HMRZ-86): Yellow
- β-Lacta ™ Test Colour (E. aerogenes strains; E. aerogenes 11796, ESBL TEM 24, 30 min with HMRZ-86): Orange
- β-Lacta ™ Test Colour (E. cloacae strains; E. cloacae 11784, Hyperproduced cephalosporinase): Orange
- β-Lacta ™ Test Colour (E. cloacae strains; E. cloacae 11790, Hyperproduced cephalosporinase): Orange
- β-Lacta ™ Test Colour (E. cloacae strains; E. cloacae 11794, Hyperproduced cephalosporinase): Orange
- β-Lacta ™ Test Colour (C. freundii strain [3]): Yellow
